IC50 and Ki data for eleven molecules are collected here from ChEMBL document CHEMBL1909046, “DrugMatrix in vitro pharmacology data”.

The target in assay [1] is Sodium-dependent dopamine transporter (Homo sapiens, UniProt Q01959). Briefly: DRUGMATRIX: Dopamine Transporter radioligand binding (ligand: [125I] RTI-55). In kind it is cell membranes, CHO-K1, Membrane. The conditions noted are these: Not Active = under 50% inhibition at 10 µM.
Assay [2] in a line: DRUGMATRIX: Glutamate, Kainate radioligand binding (ligand: [3H] Kainic acid). Format: cell membranes, Rattus norvegicus, Wistar, Brain, Membrane. The conditions noted are these: Not Active = under 50% inhibition at 10 µM.
Assay [3] deals with T1, Polyunsaturated fatty acid lipoxygenase ALOX15 (Oryctolagus cuniculus, UniProt P12530).
T1 sequence (P12530 whole entry): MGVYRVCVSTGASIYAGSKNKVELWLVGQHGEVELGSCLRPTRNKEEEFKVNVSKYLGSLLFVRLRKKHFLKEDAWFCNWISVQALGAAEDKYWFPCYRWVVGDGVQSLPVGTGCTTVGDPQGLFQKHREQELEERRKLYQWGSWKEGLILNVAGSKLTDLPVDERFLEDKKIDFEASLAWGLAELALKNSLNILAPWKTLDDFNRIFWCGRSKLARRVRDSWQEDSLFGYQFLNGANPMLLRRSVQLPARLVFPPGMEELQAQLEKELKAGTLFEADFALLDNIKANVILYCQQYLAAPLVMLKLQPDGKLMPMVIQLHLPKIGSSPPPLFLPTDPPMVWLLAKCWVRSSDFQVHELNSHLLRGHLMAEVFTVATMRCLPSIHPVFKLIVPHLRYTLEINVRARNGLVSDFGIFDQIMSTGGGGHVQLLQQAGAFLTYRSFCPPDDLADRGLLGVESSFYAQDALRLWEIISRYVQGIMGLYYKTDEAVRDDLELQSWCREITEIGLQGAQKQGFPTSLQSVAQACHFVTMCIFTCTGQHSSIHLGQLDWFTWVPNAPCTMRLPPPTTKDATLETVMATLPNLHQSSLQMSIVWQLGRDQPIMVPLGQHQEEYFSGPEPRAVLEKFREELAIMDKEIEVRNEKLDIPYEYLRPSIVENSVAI
Description: biochemical. In kind it is tissue-based, Reticulocytes.

In assay [4] the target is T2, Muscarinic acetylcholine receptor M4 (Homo sapiens, UniProt P08173). Note: in other assays of this panel Not Active means under 50% inhibition at 10 µM.
T2 sequence (P08173 whole entry): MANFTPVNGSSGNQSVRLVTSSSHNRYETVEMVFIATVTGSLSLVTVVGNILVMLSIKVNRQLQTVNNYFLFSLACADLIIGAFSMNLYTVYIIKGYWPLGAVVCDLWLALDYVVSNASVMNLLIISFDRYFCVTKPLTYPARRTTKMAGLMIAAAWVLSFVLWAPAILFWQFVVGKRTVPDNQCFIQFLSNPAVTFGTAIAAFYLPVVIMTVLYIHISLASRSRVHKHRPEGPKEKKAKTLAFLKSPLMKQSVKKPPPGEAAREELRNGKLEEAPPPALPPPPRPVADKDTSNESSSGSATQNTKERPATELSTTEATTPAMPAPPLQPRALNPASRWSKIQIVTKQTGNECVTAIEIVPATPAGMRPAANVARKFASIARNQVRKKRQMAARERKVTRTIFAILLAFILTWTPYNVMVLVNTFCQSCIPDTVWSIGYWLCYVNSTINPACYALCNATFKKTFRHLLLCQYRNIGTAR
In kind it is cell membranes, CHO-K1, Membrane. The note with it: cho-k1.

Another assay concerns the target T3, Interstitial collagenase (Homo sapiens, UniProt P03956).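 Note: MMP-1 enzyme inhibition assay using a peptide substrate; in other assays of this panel Not Active means under 50% inhibition at 10 µM.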
T3 sequence (P03956 whole entry): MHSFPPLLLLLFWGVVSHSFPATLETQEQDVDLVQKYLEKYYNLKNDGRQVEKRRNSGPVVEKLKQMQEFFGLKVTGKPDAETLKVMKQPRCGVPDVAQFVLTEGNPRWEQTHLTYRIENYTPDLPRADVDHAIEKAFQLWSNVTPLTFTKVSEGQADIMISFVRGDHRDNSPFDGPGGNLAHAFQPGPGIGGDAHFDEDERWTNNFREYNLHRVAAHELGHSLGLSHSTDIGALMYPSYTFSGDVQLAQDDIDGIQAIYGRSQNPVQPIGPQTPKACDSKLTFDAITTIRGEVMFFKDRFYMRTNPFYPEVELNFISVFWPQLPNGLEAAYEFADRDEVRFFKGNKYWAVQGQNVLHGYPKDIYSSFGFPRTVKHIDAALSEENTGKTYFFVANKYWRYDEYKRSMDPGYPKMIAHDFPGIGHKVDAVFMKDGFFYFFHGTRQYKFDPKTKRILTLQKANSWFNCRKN
Briefly: biochemical. Format: tissue-based, Rheumatoid synovial fibroblasts.

The target in a further assay is T4, Adenosine receptor A1 (Homo sapiens, UniProt P30542).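 Note: radioligand binding assay at the adenosine A1 receptor, with DPCPX serving as the labelled ligand; in other assays of this panel Not Active means under 50% inhibition at 10 µM.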
T4 sequence (P30542 whole entry): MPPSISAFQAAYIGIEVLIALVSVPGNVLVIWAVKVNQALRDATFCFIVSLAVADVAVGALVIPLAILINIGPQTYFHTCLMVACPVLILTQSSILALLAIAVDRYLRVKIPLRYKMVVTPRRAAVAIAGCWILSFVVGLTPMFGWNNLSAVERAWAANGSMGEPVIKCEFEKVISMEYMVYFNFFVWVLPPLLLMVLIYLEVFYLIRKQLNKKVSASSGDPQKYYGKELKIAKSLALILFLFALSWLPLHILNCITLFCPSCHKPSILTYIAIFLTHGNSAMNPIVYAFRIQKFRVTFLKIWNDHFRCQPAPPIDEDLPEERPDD
In kind it is cell membranes, CHO, Membrane. The note with it: cho.

Sodium-dependent dopamine transporter, sequence (Q01959 whole entry): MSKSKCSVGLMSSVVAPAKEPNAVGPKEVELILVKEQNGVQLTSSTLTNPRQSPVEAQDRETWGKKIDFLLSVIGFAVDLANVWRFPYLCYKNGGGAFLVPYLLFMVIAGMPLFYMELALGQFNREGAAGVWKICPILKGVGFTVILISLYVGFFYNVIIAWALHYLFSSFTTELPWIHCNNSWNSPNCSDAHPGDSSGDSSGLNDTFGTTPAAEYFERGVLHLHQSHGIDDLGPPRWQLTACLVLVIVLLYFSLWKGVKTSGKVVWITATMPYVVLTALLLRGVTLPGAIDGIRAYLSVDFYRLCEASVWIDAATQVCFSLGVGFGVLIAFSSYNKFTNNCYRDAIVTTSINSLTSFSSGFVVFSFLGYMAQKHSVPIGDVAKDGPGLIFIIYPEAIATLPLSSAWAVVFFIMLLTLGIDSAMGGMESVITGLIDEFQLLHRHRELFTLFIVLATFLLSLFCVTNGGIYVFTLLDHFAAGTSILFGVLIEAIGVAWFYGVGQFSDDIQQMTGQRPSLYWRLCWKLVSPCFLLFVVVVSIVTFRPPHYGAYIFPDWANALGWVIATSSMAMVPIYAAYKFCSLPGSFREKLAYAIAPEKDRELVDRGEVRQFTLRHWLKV

A word on the IC50: it is the concentration that inhibits the measured activity by half. Usually Ki stands for the equilibrium dissociation constant of an inhibitor or competing ligand from its target. As to `O=C(O)c1cc(/N=N/c2ccc(S(=O)(=O)Nc3ccccn3)cc2)ccc1O` [SULFASALAZINE], the IC50 result was “Not Active” in assay [1] (cho-k1); “Not Active” in assay [2]; “Not Active” in assay [3] (reticulocytes); “Not Active” in assay [4]; 23.5 µM on Interstitial collagenase (read-out: IC50); “Not Active” against Adenosine receptor A1. Moreover, in assay [2], the Ki result is on record as “Not Active”.
`CCN(CC)CCNC(=O)c1cc(Cl)c(N)cc1OC` [METOCLOPRAMIDE]: the IC50 entry (in assay [1] (cho-k1); in assay [2]; in assay [3] (reticulocytes); in assay [4]; on Interstitial collagenase; at Adenosine receptor A1) was “Not Active” throughout. The Ki entry in assay [2] is reported as “Not Active”.
As to `COC(=O)Nc1nc2ccc(C(=O)c3ccccc3)cc2[nH]1` [MEBENDAZOLE], the IC50 entry (in assay [1] (cho-k1); in assay [2]; in assay [3] (reticulocytes); in assay [4]; against Interstitial collagenase; on Adenosine receptor A1) was “Not Active” in each case. Further, the Ki result in assay [2] is “Not Active”.
In the case of `Cc1ccnc(NS(=O)(=O)c2ccc(N)cc2)n1` [SULFAMERAZINE], the IC50 entry (in assay [1] (cho-k1); in assay [2]; in assay [3] (reticulocytes); in assay [4]; against Interstitial collagenase; on Adenosine receptor A1) was “Not Active” in each case. Also, the Ki entry in assay [2] is “Not Active”.
Take `Cc1cccc(C)c1NC(=O)C(C)N` (stereo not drawn) [TOCAINIDE]: the IC50 entry (in assay [1] (cho-k1); in assay [2]; in assay [3] (reticulocytes); in assay [4]; against Interstitial collagenase; on Adenosine receptor A1) was “Not Active” in each case. The Ki result in assay [2] is on record as “Not Active”.
For the molecule `CC#C[C@]1(O)CC[C@H]2[C@@H]3CCC4=CC(=O)CCC4=C3[C@@H](c3ccc(N(C)C)cc3)C[C@@]21C` [MIFEPRISTONE], the IC50 result was “Not Active” in assay [1] (cho-k1); “Not Active” in assay [2]; 0.555 µM in assay [3] (read-out: IC50); “Not Active” in assay [4]; “Not Active” against Interstitial collagenase; “Not Active” at Adenosine receptor A1. In addition, the Ki result in assay [2] is on record as “Not Active”.
For the molecule `C[C@]12CCC(=O)C[C@@H]1CC[C@@H]1[C@@H]2CC[C@]2(C)[C@@H](O)CC[C@@H]12` [STANOLONE], the 50% inhibitory concentration (IC50) result (in assay [1] (cho-k1); in assay [2]; in assay [3] (reticulocytes); in assay [4]; at Interstitial collagenase; against Adenosine receptor A1) was “Not Active” throughout. Besides, in assay [2], the Ki result is reported as “Not Active”.
For `C1CCN2C[C@@H]3C[C@@H](CN4CCCC[C@@H]34)[C@H]2C1` [SPARTEINE], the IC50 result (in assay [1] (cho-k1); in assay [2]; in assay [3] (reticulocytes); in assay [4]; on Interstitial collagenase; against Adenosine receptor A1) was “Not Active” throughout. Moreover, the Ki result in assay [2] was “Not Active”.
For the molecule `CO[C@@H]1[C@@H](OC)[C@H](C)[C@@](O)(CC(=O)O)O[C@H]1[C@H](C)[C@H]1O[C@@]2(CC[C@@](C)([C@H]3CC[C@@](C)([C@@H]4O[C@@H]([C@H]5O[C@](C)(O)[C@H](C)C[C@@H]5C)C[C@@H]4O[C@@H]4C[C@H](OC)[C@@H](OC)[C@H](C)O4)O3)O2)C[C@H](O)[C@H]1C.N` [MADURAMICIN], the IC50 entry (in assay [1] (cho-k1); in assay [2]; in assay [3] (reticulocytes); in assay [4]; against Interstitial collagenase; against Adenosine receptor A1) was “Not Active” in each case. Further, the Ki result in assay [2] is recorded as “Not Active”.
As for `CC(N)C12CC3CC(CC(C3)C1)C2` (stereo not drawn) [RIMANTADINE], the IC50 result (in assay [1] (cho-k1); in assay [2]; in assay [3] (reticulocytes); in assay [4]; at Interstitial collagenase; against Adenosine receptor A1) was “Not Active” each time. In addition, the inhibitory constant (Ki) entry in assay [2] is recorded as “Not Active”.
Consider `CCN(CC)C(=S)SSC(=S)N(CC)CC`, for which the IC50 is 4.64 µM in assay [1] (read-out: IC50); “Not Active” in assay [2]; 16.1 µM in assay [3] (read-out: IC50); “Not Active” in assay [4]; “Not Active” at Interstitial collagenase; “Not Active” against Adenosine receptor A1. The inhibition constant (Ki) in assay [1] (read-out: Ki) is 3.68 µM; in assay [2], “Not Active”.
